Source: US7015236B2, “N-heteroarylnicotinamide derivatives” (Sankyo Agro Company, Limited, priority 2001, dated 2006)

test system: green peach aphid (Myzus persicae); test: Insecticidal test for green peach aphid (100 ppm), Test Example 1; assay type: in vivo; conditions: 120 h, 100 ppm spray on Komatsuna leaf, larvae, counted 5 days after spraying, 25° C., read-out: mortality (%)
Experimental: Insecticidal test for green peach aphid (Myzus persicae) (100 ppm)
Water (30 ml) was put into a beaker, and a leaf of Komatsuna (Brassica var. rapa) was placed within the beaker such that the stem was immersed in water. On the leaf of Komatsuna, five green peach aphids were released and allowed to fertilize. Two days after the releasing, imagoes were removed and the number of larvae was counted.
A surfactant Newcol NE-710F (trademark, produced by Nippon Nyukazai Co., Ltd., 2%) was dissolved in aqueous acetone (95% aqueous solution, 98%) to prepare solution 1. Next, a dispersant Gousenol GLO5-S (trademark, produced by Nippon Nyukazai Co., Ltd., 0.2% aqueous solution, 0.2%) was dissolved in water (99.8%) to prepare solution 2.
To each of the compounds (8 mg) of the present invention, the above solution 1 (0.4 ml), the above solution 2 (0.4 ml) and water (8 ml) were added. Further, the compounds of the present invention were each diluted with water so that the concentration of each compound was 100 ppm {as a spreading agent, Gramin S (trademark, produced by Sankyo Co., Ltd.) was added so as to have a concentration of 0.01%}.
The above chemical liquid (8 ml) was sprayed on the leaf of Komatsuna by use of a rotary spraying tower. The leaf of Komatsuna was put back in the beaker. Then, the beaker was placed in a thermostatic chamber of 25° C. for 16 hours in the light and for 8 hours in the dark. 5 Days after the spraying, the number of dead insects was counted to calculate the mortality (%).

| Structure (SMILES) | mortality at 100 ppm [%] |
| --- | --- |
| CC(=O)N(C(=O)c1cnccc1C(F)(F)F)c1cc(C)no1 [Example 27, N-Acetyl-N-(3-methyl-5-isoxazolyl)-4-(trifluoromethyl)nicotinamide] | ≥ 95 |
| CON=Cc1cc(NC(=O)c2cnccc2C(F)(F)F)on1 [Example 28, N-(3-Methoxyiminomethyl-5-isoxazolyl)-4-(trifluoromethyl)nicotinamide] | ≥ 95 |
| CCOC(=O)c1cc(NC(=O)c2cnccc2C(F)(F)F)on1 [Example 29, N-(3-Ethoxycarbonyl-5-isoxazolyl)-4-(trifluoromethyl)nicotinamide] | ≥ 95 |
| O=C(c1cnccc1C(F)(F)F)N(C(=O)c1cnccc1C(F)(F)F)c1ccno1 [Example 30, 5-[N,N-Bis(4-trifluoromethylnicotinoyl)]aminoisoxazole] | ≥ 95 |
| Cc1noc(NC(=O)c2cnccc2C(F)(F)F)c1C [Example 33, N-(3,4-Dimethyl-5-isoxazolyl)-4-(trifluoromethyl)nicotinamide] | ≥ 95 |
| CCc1cnoc1NC(=O)c1cnccc1C(F)(F)F [Example 34, N-(4-Ethyl-5-isoxazolyl)-4-(trifluoromethyl)nicotinamide] | ≥ 95 |
| CCCc1cnoc1NC(=O)c1cnccc1C(F)(F)F [Example 35, N-(4-Propyl-5-isoxazolyl)-4-(trifluoromethyl)nicotinamide] | ≥ 95 |
| CC(C)c1cnoc1NC(=O)c1cnccc1C(F)(F)F [Example 36, N-(4-Isopropyl-5-isoxazolyl)-4-(trifluoromethyl)nicotinamide] | ≥ 95 |
| O=C(Nc1oncc1C1CC1)c1cnccc1C(F)(F)F [Example 37, N-(4-Cyclopropyl-5-isoxazolyl)-4-(trifluoromethyl)nicotinamide] | ≥ 95 |
| C=CCc1cnoc1NC(=O)c1cnccc1C(F)(F)F [Example 38, N-(4-Allyl-5-isoxazolyl)-4-(trifluoromethyl)nicotinamide] | ≥ 95 |
| CCCCc1cnoc1NC(=O)c1cnccc1C(F)(F)F [Example 39, N-(4-Butyl-5-isoxazolyl)-4-(trifluoromethyl)nicotinamide] | ≥ 95 |
| CC(C)Cc1cnoc1NC(=O)c1cnccc1C(F)(F)F [Example 40, N-(4-Isobutyl-5-isoxazolyl)-4-(trifluoromethyl)nicotinamide] | ≥ 95 |
| O=C(Nc1oncc1C1CCC1)c1cnccc1C(F)(F)F [Example 41, N-(4-Cyclobutyl-5-isoxazolyl)-4-(trifluoromethyl)nicotinamide] | ≥ 95 |
| O=C(Nc1oncc1C1CCCC1)c1cnccc1C(F)(F)F [Example 42, N-(4-Cyclopentyl-5-isoxazolyl)-4-(trifluoromethyl)nicotinamide] | ≥ 95 |
| CCCCCCc1cnoc1NC(=O)c1cnccc1C(F)(F)F [Example 43, N-(4-Hexyl-5-isoxazolyl)-4-(trifluoromethyl)nicotinamide] | ≥ 95 |
| CCCCCCc1cnoc1N(C(=O)c1cnccc1C(F)(F)F)C(=O)c1cnccc1C(F)(F)F [Example 44, 5-[N,N-Bis(4-trifluoromethylnicotinoyl)]amino-4-hexylisoxazole] | ≥ 95 |
| O=C(Nc1oncc1Cc1ccccc1)c1cnccc1C(F)(F)F [Example 45, N-(4-Benzyl-5-isoxazolyl)-4-(trifluoromethyl)nicotinamide] | ≥ 95 |
| O=C(Nc1oncc1CCc1ccccc1)c1cnccc1C(F)(F)F [Example 46, N-(4-Phenylethyl-5-isoxazolyl)-4-(trifluoromethyl)nicotinamide] | ≥ 95 |
| COc1cnoc1NC(=O)c1cnccc1C(F)(F)F [Example 47, N-(4-Methoxy-5-isoxazolyl)-4-(trifluoromethyl)nicotinamide] | ≥ 95 |
| COCc1noc(NC(=O)c2cnccc2C(F)(F)F)c1OC [Example 48, N-(4-Methoxy-3-methoxymethyl-5-isoxazolyl)-4-(trifluoromethyl)nicotinamide] | ≥ 95 |
